Calls of active or inactive are those of the source. The calls are words filed in the database; no cut-off is given here.
How the values were obtained:
Acetylcholinesterase [1] = biological target: T1, Acetylcholinesterase (Electrophorus electricus, UniProt O42275); test: Inhibition of electric eel AChE pre-incubated for 5 mins before acetylthiocholine iodide substrate addition and measured after 15 mins by Ellman's method
Cholinesterase = Cholinesterase (Equus caballus, UniProt P81908); test: Inhibition of equine serum BuChE pre-incubated for 5 mins before butyrylthiocholine iodide substrate addition and measured after 15 mins by Ellman's method
Cholinesterase, sequence (P81908 whole entry): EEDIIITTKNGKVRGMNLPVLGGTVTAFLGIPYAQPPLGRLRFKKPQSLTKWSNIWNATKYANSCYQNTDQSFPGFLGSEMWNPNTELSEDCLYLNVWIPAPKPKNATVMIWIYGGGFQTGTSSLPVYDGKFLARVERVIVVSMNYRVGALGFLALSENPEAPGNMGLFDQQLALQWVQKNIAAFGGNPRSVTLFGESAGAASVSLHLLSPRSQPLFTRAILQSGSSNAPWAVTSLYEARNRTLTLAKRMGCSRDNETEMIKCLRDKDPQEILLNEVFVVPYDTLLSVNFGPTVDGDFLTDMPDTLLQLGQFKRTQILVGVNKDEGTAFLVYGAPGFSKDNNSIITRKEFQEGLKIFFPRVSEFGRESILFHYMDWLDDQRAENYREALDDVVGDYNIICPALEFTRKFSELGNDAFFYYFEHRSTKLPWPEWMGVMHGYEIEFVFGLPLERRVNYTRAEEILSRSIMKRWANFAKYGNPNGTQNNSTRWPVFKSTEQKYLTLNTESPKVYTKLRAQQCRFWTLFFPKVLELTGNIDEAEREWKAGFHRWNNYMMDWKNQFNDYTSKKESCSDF

PC-12 [2] = test: Neuroprotective activity in rat PC12 cells assessed as protection against H2O2-induced cytotoxicity at 1 uM pre-incubated for 3 hrs before H2O2 addition and measured after 12 hrs by MTT assay; type: functional, cell-based
PC-12 [3] = test: Neuroprotective activity in rat PC12 cells assessed as protection against H2O2-induced cytotoxicity at 100 uM pre-incubated for 3 hrs before H2O2 addition and measured after 12 hrs by MTT assay; type: functional, cell-based
PC-12 [4] = test: Neuroprotective activity in rat PC12 cells assessed as protection against H2O2-induced cytotoxicity at 10 uM pre-incubated for 3 hrs before H2O2 addition and measured after 12 hrs by MTT assay; type: functional, cell-based
Acetylcholinesterase [5] = biological target: T1, Acetylcholinesterase; test: Mixed type inhibition of electric eel AChE pre-incubated for 5 mins before acetylthiocholine iodide substrate addition and measured after 15 mins by modified Ellman's method baaed Lineweaver-Burk plot analysis
[6] = biological target: Beta-secretase 1 (Homo sapiens) (UniProt P56817); test: Inhibition of recombinant human BACE1 (1 to 460 residues) expressed in baculovirus-infected insect cells at 10 uM using Rh-EVNLDAEFK-quencher as substrate measured after 90 mins by FRET assay relative to control
Beta-secretase 1 (Homo sapiens), sequence (P56817 whole entry, the tested form may be a part): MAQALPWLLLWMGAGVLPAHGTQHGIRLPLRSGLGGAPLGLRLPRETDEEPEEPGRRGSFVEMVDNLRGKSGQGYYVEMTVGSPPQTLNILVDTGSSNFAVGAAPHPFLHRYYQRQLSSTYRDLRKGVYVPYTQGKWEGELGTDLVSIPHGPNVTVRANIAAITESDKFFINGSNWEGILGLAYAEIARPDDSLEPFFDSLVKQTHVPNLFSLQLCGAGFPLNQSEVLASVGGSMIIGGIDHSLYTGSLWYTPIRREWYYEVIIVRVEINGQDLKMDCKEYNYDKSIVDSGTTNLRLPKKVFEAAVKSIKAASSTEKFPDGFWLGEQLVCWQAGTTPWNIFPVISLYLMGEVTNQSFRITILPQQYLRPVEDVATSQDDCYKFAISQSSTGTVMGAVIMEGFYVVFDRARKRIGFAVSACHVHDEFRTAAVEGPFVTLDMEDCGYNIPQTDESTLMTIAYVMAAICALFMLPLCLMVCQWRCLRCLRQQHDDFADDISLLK

[7] = biological target: Beta-secretase 1 (Homo sapiens) (UniProt P56817); test: Inhibition of recombinant human BACE1 (1 to 460 residues) expressed in baculovirus-infected insect cells at 50 uM using Rh-EVNLDAEFK-quencher as substrate measured after 90 mins by FRET assay relative to control

T1 sequence (O42275 whole entry): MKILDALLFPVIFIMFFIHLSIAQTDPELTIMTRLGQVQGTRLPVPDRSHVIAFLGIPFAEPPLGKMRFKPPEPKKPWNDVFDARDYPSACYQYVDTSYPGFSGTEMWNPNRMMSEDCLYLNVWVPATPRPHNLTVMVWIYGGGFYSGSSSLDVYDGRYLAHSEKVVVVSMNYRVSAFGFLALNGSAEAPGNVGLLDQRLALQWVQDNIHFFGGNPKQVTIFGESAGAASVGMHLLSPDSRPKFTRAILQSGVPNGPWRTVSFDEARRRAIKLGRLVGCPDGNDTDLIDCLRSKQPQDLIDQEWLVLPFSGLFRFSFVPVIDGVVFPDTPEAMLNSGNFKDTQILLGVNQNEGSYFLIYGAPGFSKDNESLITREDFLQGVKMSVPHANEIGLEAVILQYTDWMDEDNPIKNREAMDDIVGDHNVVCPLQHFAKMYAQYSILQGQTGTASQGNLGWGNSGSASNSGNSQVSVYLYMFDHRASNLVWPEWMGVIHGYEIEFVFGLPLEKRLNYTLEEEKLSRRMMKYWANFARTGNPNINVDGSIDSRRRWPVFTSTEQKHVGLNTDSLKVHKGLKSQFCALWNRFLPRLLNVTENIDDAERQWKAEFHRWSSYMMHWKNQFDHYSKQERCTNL

SMILES | IC50 (Acetylcholinesterase [1]) | IC50 (Cholinesterase) | other results
O=c1c2ccccc2nnn1Cc1ccc[n+](Cc2ccc(F)cc2)c1 | 150 nM | 23800 nM | Activity (PC-12 [2]): Active
O=c1c2ccccc2nnn1Cc1ccc[n+](Cc2ccccc2)c1 | 170 nM | 31200 nM | 
O=c1c2ccccc2nnn1Cc1cc[n+](Cc2ccccc2[N+](=O)[O-])cc1 | 1300 nM | 18200 nM | 
O=c1c2ccccc2nnn1Cc1cc[n+](Cc2ccccc2Cl)cc1 | 1370 nM | 55000 nM | 
O=c1c2ccccc2nnn1Cc1ccc[n+](Cc2ccc([N+](=O)[O-])cc2)c1 | 160 nM | 17200 nM | 
O=c1c2ccccc2nnn1Cc1cc[n+](Cc2ccc(Br)cc2)cc1 | 1180 nM | 51800 nM | 
O=c1c2ccccc2nnn1Cc1ccc[n+](Cc2ccccc2Br)c1 | 150 nM | 16800 nM | Activity (PC-12 [3]): Active; Activity (PC-12 [2]): Active; Activity (PC-12 [4]): Active
O=c1c2ccccc2nnn1Cc1ccc[n+](Cc2ccc(Br)cc2)c1 | 840 nM | 5800 nM | 
Cc1ccccc1C[n+]1cccc(Cn2nnc3ccccc3c2=O)c1 | 200 nM | 13700 nM | 
O=c1c(O)c(-c2ccc(O)c(O)c2)oc2cc(O)cc(O)c12 |  |  | Activity (PC-12 [4]): Active
O=c1c2ccccc2nnn1Cc1ccc[n+](Cc2ccccc2F)c1 | 290 nM | 23900 nM | 
O=c1c2ccccc2nnn1Cc1ccc[n+](Cc2cccc(F)c2)c1 | 170 nM | 27800 nM | 
O=c1c2ccccc2nnn1Cc1cc[n+](Cc2ccccc2)cc1 | 1340 nM | 75200 nM | 
O=c1c2ccccc2nnn1Cc1ccc[n+](Cc2cccc(Br)c2)c1 | 300 nM | 14700 nM | 
O=c1c2ccccc2nnn1Cc1cc[n+](Cc2ccc(F)cc2)cc1 | 1640 nM | 70700 nM | 
O=c1c2ccccc2nnn1Cc1cc[n+](Cc2ccccc2F)cc1 | 1680 nM | 64600 nM | 
O=c1c2ccccc2nnn1Cc1ccc[n+](Cc2c(Cl)cccc2Cl)c1 | 730 nM | 21600 nM | 
O=c1c2ccccc2nnn1Cc1ccc[n+](Cc2ccccc2[N+](=O)[O-])c1 | 100 nM | 17500 nM | Ki (Acetylcholinesterase [5]): 17 nM; Activity (PC-12 [3]): Active; inhibition [6]: 37%; inhibition [7]: 61.2%
